One data set concerns ALS. The note with it: cited from earlier work; for efficacy in clinical trials: ALS therapeutic drug candidates.
For a further data set, the system named is NSC-34 cells. Kind of data set: ROS assay. It counts as cell-based, mouse. The protocol:
The ROS assay is a test in which the test substances are evaluated for their ability to eliminate the ROS produced by a cell under stress. The ROS assay was performed by culturing NSC-34 cells in a medium from which serum (FBS) had been removed, and measuring the increased ROS produced at that time using CM-H2DCFDA.
NSC-34 cells were suspended in phenol red free DMEM medium, and NSC-34 cells were seeded at a target concentration of 4×10^4 cells/well in a 96-well plate at 200 μL/well.
Then, the medium was completely removed from the 96-well plate, DMEM ([-] phenol red) was added at 200 μL/well, and then the test substance dissolved in DMSO (or solvent only) was added at 0.4 μL/well. […] And placed in the incubator for 1 hour. One hour later, the fluorescence intensity (excitation wavelength 485 nm, fluorescence wavelength 520 nm) was measured using a fluorescence microplate reader.
The test was performed 2 to 4 times in quadruplicate. As a positive control, 30 μg/mL (120 μM) trolox was used. From the measurement result obtained with the test substance, the relative intensity to trolox was calculated by the following formula (1).

Data set [1] relates to differentiated NSC-34 cells. Put plainly: ODAP-EA assay (reducing effect on motor excitotoxicity). It counts as cell-based, mouse. From the text: ODAP-EA assay was invented by the present inventor as a test for measuring the reducing effect on motor exciotoxicity (Kusama-Eguchi K, et. al. Food Chem Toxicol., 49, 636-643 (2011)). In the ODAP-EA assay, differentiated NSC-34 cells were subjected to excitotoxicity in NSC-34 cells by adding ethacrynic acid (EA), which has a mitochondrial glutathione level-lowering effect, and L-β-ODAP, which is a neurotoxic amino acid. Then, the effect of reducing the excitotoxicity of the test substance is evaluated.
NSC34 cells were cultivated in a Rich medium in a […] until they became confluent, and then the Rich medium in the dish was removed. […] The replacement of the Poor medium once a day was repeated about 3 to 5 times to promote the differentiation of NSC-34 cells.
The NSC-34 cells differentiated as described above were suspended in Poor medium and seeded in a 96-well plate at a target concentration of 4×10^4 cells/well at 200 μL/well. […]
Then, 110 μL of the medium in the well plate was removed, 10 μL/well of AlamarBlue™ previously returned to room temperature was added, and the plate was placed in an incubator at 37° C. under 5% CO2 condition. After about 1 hour, the fluorescence intensity (excitation wavelength: 544 nm, fluorescence wavelength: 590 nm) was measured using a fluorescence plate reader. […]

Data set [2] relates to ALS model mice holding SOD1-G93A gene. Put plainly: Change in the body weight of ALS model mice, administration test 1. Particulars: 1 mg/kg and 10 mg/kg, oral once a day from 60 days after birth. The format is in vivo. Here is the method:
(§1) ALS model mice holding SOD1-G93A gene were used for the experiment. The first generation mouse was generated by bleeding a 6-week-old SOD1-G93A transgenic male (B6SJL-Tg (SOD1-G93A) 1Gur/J, imported from The Jackson Laboratory, USA) with 8-week-old C57BL/6J female mice (designated as F1 as shown below), and placed in the same cage for 1 week for mating.
(§2) Backcrossing was performed using the first backcross SOD1-G93A gene-bearing male mouse (FuBk1) and C57BL/6J female mouse (F1) produced as described above, and the resulting mouse carrying the SOD1-G93A gene was backcrossed with C57BL/6J female mice, which was the second mouse (FuBk2) They were used in the preliminary test described below. A male mouse (FuBk2) carrying the SOD1-G93A gene was further crossed with an F1 female mouse to prepare a third backcrossed mouse (FuBk3) and a fourth backcrossed mouse (FuBk4), which will be described later as the final examination.
Subject animal: The second backcrossed mice (FuBk2) holding SOD1-G93A were determined by genotyping, and were used for the treatment experiment from 60 days after birth (pre-symptomatic period). A total of 16 animals were used as test animals (n=16).
The test substance dissolved in DMSO was prepared at a concentration shown in Table 12 using a 2.5% DMSO (final concentration) solution as a solvent. […]
The body weight was measured twice a week. […]

Data set [3] shares this test system. Put plainly: Motor performance (Rota-rod test) in ALS model mice. It counts as in vivo, mouse. Here is the method: as §1
Backcrossing was performed using the first backcross SOD1-G93A gene-bearing male mouse (FuBk1) and C57BL/6J female mouse (F1) produced as described above, and the resulting mouse carrying the SOD1-G93A gene was backcrossed with C57BL/6J female mice, which was the second mouse (FuBk2) They were used in the preliminary test described below. […]
(§3) The test substance was evaluated based on two points: the survival days of mice and motor function. Regarding the number of days of survival, the number of days until the mouse was determined to be dead (including surrogate death) was evaluated. Motor function was evaluated by a motor test using the Rota-rod method.
In order to investigate the onset time of ALS-like symptoms in the test subject mouse, the motor function of the mouse was measured once a week by the Rota-rod method using a ROTA-ROD TREADMILL for MICE MK-600 (Muromachi). […] Those who fell twice in 300 seconds or less were regarded as mice showing the symptoms of motor inability, and the latency (seconds) until they fell was also measured. […]

The test system is the same in data set [4]. Put plainly: Survival days (Kaplan-Meier) in ALS model mice. The format is in vivo, mouse. The protocol: as §1, §2, §3
A mouse that lost its righting reflex and could not return to the correct posture within 20 seconds was determined to be a surrogate death.
The test results were analyzed by the Kaplan-Meier method, and the p-value and median were obtained by the Log-Rank test or the Wilcoxon test. The latency between control and YY-1 group after developing of the motor inability was analyzed by T-test for each measuring point.
Of the third backcrossed mouse (FuBk3) carrying the SOD1-G93A gene, a total of 51 male and female mice determined to carry the SOD1-G93A gene by genotyping, and were used as test animals.
The test drug was prepared at a concentration shown in Table 14 using a 1% DMSO+2% Tween 20 solution as a solvent. The test substance was orally administered to mice using a sterilized disposable sonde. According to Table 13 above, the test substance in an amount corresponding to the body weight was […] administered to the mouse.
A total of 52 determined female mice were used as test animals.
The test substance was administered to the mouse once a day from 105 days after birth using a sterilized disposable oral probe at 0.1 mL/10 g (body weight) (10 mg/kg).

The test system of data set [5] is SOD1-G93A-introduced N2a cells. Kind of data set: Dual-luciferase assay (SOD1-G93A gene introduced into N2a cells). The note with it: positive control resveratrol.
Where [6] appears, read: 5 mg/kg oral once a day from about 45 days after birth, FuBk3 mice, tendency, p=0.090.
[7] abbreviates: 10 mg/kg oral once a day from 105 days after birth, FuBk4 mice, p=0.029.

On to `CC(=O)N[C@@H](CS)C(=O)O` [N-acetylcysteine], for which, in the data set with ALS, the “efficacy in clinical trials” value is on record as “no efficacy”.

Regarding `C/C=C/C=C/[C@H]1OC(=O)CC[C@@H]1O` [YY-1, (5S,6R)-5-hydroxy-6-[(1E,3E)-penta-1,3-dien-1-yl] tetrahydro-2H-pyran-2-one], the “ROS scavenging action relative to trolox” value with NSC-34 cells (relative to 30 μg/mL (120 μM) trolox, serum-free medium, test substance 10, 30 or 100 μg/mL) is recorded as “about 20%”. Further, the “ROS assay activity relative to 322-Ext at the same concentration” value with NSC-34 cells (same concentration as 322-Ext) is “about 40%”. In addition, the “relative strength with respect to 4 mM NAC (highest)” value in data set [1] (0.1 to 3.0 μg/mL (0.55 to 16.5 μM)) was at most 20%. The ODAP-EA toxicity-reducing effect entry in data set [1] (all concentrations of 0.1 to 100 μg/mL (0.55 to 550 μM)) was “strong ODAP-EA toxicity-reducing effect”. Besides, in data set [2], the “toxicity to the ALS model mouse (presumed from body weight)” value is reported as “no or low toxicity”. The body weight change entry in data set [2] (FuBk2 male mice) is “no significant weight loss”. Also, the “prolongation of development of motor disability vs control, median” value in data set [3] (5 mg/kg oral once a day from about 45 days after birth, FuBk3 mice, tendency, p=0.12) is given as 7 days. Also, the “delay effect in motor dysfunction” value in data set [3] (10 mg/kg oral once a day from 105 days after birth, FuBk4 mice) is reported as “about 7 days”. Moreover, in data set [4] (setting [6]), the “extension of survival days vs control, average value” is listed as “about 5 days” and the “extension of survival days vs control, median value” was determined as 8 days. Also, in data set [4] (setting [7]), the “prolongation of survival days vs control, mean value” was “about 6 days” and the “prolongation of survival days vs control, median value” was found to be 5 days. Further, the “luminescence intensity in excess of the positive control” value in data set [5] (0.1 μg/mL (0.55 μM)) is “about 40%”. The “luminescence intensity in excess of the positive control” value in data set [5] (1 μg/mL (5.5 μM)) is “about 40%”.

`COC1=C(OC)C(=O)C(C/C=C(\C)CC/C=C(\C)CC/C=C(\C)CC/C=C(\C)CC/C=C(\C)CC/C=C(\C)CC/C=C(\C)CC/C=C(\C)CC/C=C(\C)CCC=C(C)C)=C(C)C1=O` [coenzyme Q10]: the “efficacy in clinical trials” value with ALS is reported as “no efficacy”.

As to `N[C@@H](CCC(=O)N[C@@H](CS)C(=O)NCC(=O)O)C(=O)O` [glutathione], in the data set on ALS, the “efficacy in clinical trials” value is on record as “no efficacy”.

On to `C/C1=C2/[N-][C@H]([C@H](CC(N)=O)[C@@]2(C)CCC(=O)NC[C@@H](C)OP(=O)([O-])O[C@H]2[C@@H](O)[C@@H](n3cnc4cc(C)c(C)cc43)O[C@@H]2CO)[C@]2(C)N=C(/C(C)=C3N=C(/C=C4N=C1[C@@H](CCC(N)=O)C\4(C)C)[C@@H](CCC(N)=O)[C@]\3(C)CC(N)=O)[C@@H](CCC(N)=O)[C@]2(C)CC(N)=O.[CH3-].[Co+3]` [methylcobalamin], for which the “efficacy in clinical trials” value in the data set on ALS is listed as “no efficacy”.

For “IGF-1: Insulin-like growth factor-1, protein expected to have an action of preventing motor nerve loss”, the “outcome of clinical trials (Phase 3)” value with ALS (Non-Patent Document 5) was “unsuccessful”.

Source of the values: patent US20250263388A1, “NOVEL COMPOUND BASED ON VALEROLACTONE AND MEDICINE” (priority 2018, published 2025).
